We go through 13 compounds from patent publication US20080250710A1, “Low Light Cultivation Method and Plant Growth Promoting Agent” (priority 2005, published 2008).

Test [1] concerns morning glory (Pharbitis nil var. Violet) seedlings. As to the kind of experiment: Low light cultivation experiment: number of days until lodging of morning glory young plants. The class given is in vivo. As to conditions: for Average value (days) of the numbers of days until lodging: 250 mL per pot once every four days, 200 lux, 23° C.; for effectiveness to low light cultivation (days until lodging versus control test solution): verdict in words. How it is done: As a plant, morning glory (Pharbitis nil var. Violet) seedlings (day 7 after germination) were used. Experiments were conducted in an incubator (low temperature of 23° C.) in daily cycles where a light period (200 lux) is 14 hours and a dark period is 10 hours in a day. Morning glory seeds (purchased from Marutane Co., Ltd., Kyoto) were sown in black plastic pots (commercially available No. 105 size: diameter 105 cm, height 90 cm). Vermiculite was used as culture medium (the wet weight of vermiculite in a pot was 350 g).
250 mL of a test solution was given to each pot once every four days. Test data was taken from 10 morning glory seedlings (young plants) grown per pot. After start of the test, the number of seedlings that lodged was counted every day. A lodging criterion is that the hypocotyl (a rachis under a cotyledon) of a young plant lodges and the cotyledon contacts culture medium, or the whole cotyledon died. Lodged young plants were removed each time. Note that the effect was evaluated using the average value of the numbers of days until lodging. The average value was calculated as follows. For example, when three plants lodged on day 9, four plants lodged on day 10, and three plants lodged on day 11, then the average value is 10.0 (=(9×3+10×4+11×3)/10).
Eight organic acids (aminolevulinic acid, citric acid, malic acid, succinic acid, tartaric acid, acetic acid, oxalic acid, and lactic acid) were prepared. Each organic acid was dissolved in a 500-fold dilution of a liquid fertilizer (VIGOR LIFE V) (a solution in which VIGOR LIFE V was diluted 500-fold with distilled water). Thereafter, the solution was adjusted to pH 5.0 with potassium hydroxide. Note that the organic acid concentration of each test solution was 5 mM.
A 500-fold dilution of VIGOR LIFE V was used as a control test solution.
The eight test solutions and the control test solution were used to conduct the low light cultivation experiment. Note that the upper row of Table 1 indicates the organic acids contained in the test solutions (the control test solution contained no organic acid). Also, the lower row of Table 1 indicates the average values (days) of the numbers of days until lodging of the morning glory young plants.
Six sugars (sucrose, glucose, fructose, trehalose, palatinose, and xylose) were prepared. Each sugar was dissolved in a 500-fold dilution of a liquid fertilizer (VIGOR LIFE V) (a solution in which VIGOR LIFE V was diluted 500-fold with distilled water). Note that the sugar concentration of each test solution was 3%.
Also, a 500-fold dilution of VIGOR LIFE V was used as a control test solution. […]
Note that the upper row of Table 2 indicates the sugars contained in the test solutions (the control test solution contained no sugar). Also, the lower row of Table 2 indicates the average values (days) of the numbers of days until lodging of the morning glory young plants.

Test [2] concerns houseplant weeping fig (Ficus benzyamina). Description: Low light cultivation of weeping fig: leaf survival ratio. The note with it: after four weeks, verdict in words. Format: in vivo.
Experimental: The inorganic solution was used as a control reagent. (Reagent 1: the inorganic solution in which aminolevulinic acid is dissolved, Reagent 2: the inorganic solution in which citric acid is dissolved, and Reagent 3: the inorganic solution in which citric acid and sucrose are dissolved).
Note that, in respective reagents, the citric acid concentration was 5 mM, the sucrose concentration was 3%, and the aminolevulinic acid concentration was 100 ppm. The reagents containing citric acid (Reagent 2 and Reagent 3) were adjusted to pH 5.0 with potassium hydroxide.
Low light cultivation was conducted using the reagents and a houseplant weeping fig, with two methods below.
Regular cultivation: four commercially available weeping fig plants in No. 4-sized pots were prepared. The four reagents (Reagents 1 to 3 and the control reagent) were given to the respective plants in an amount of 50 mL once (Monday) every week. Watering was performed in an amount of 50 mL twice (Wednesday and Friday) every week. […]
The effect of each reagent was evaluated by counting the number of leaves for each pot and calculating the survival ratio (%) of leaves every week. Note that the leaf survival ratio (%) was calculated as a “survival ratio (%)=the number of counted weeping fig leaves/the number of weeping fig leaves before low light cultivation (initial value)×100”.
The mark [3] stands for this setting: organic acid 5 mM in 500-fold dilution of VIGOR LIFE V, pH 5.0.
[4] abbreviates: sugar 3% in 500-fold dilution of VIGOR LIFE V.

The structures appear in SMILES notation.

In the case of `CC(=O)O` [Acetic acid, acetic acid], in test [1] (setting [3]), the “Average value (days) of the numbers of days until lodging” value (“Average value (days)” for short) amounted to 3.9 days.
For `NCC(=O)CCC(=O)O` [Aminolevulinic acid, aminolevulinic acid, reference compound], the “Average value (days)” value in test [1] (setting [3]) turned out to be 2.5 days.
Consider `O=C(O)CC(O)(CC(=O)O)C(=O)O` [Citric acid, citric acid], for which, in test [1] (setting [3]), the “Average value (days)” value is given as 12.9 days. Further, in test [1] (organic acid 5 mM, pH 5.0), the “effectiveness to low light cultivation (days until lodging versus control test solution)” value is given as “effective”. For the same compound, the “effectiveness to low light cultivation (leaf survival ratio versus control reagent)” value in test [2] was “effective”.
Regarding `O=C(CO)[C@@H](O)[C@H](O)[C@H](O)CO` [Fructose, fructose], the “Average value (days)” value in test [1] (setting [4]) turned out to be 22.1 days. For the same compound, in test [1] (sugar 3%), the “effectiveness to low light cultivation (days until lodging versus control test solution)” value was “particularly effective”.
Take `CC(O)C(=O)O` (centres unmarked) [Lactic acid, lactic acid]: the “Average value (days)” value in test [1] (setting [3]) is recorded as 6.1 days.
As for `O=C(O)CC(O)C(=O)O` (centres unmarked) [Malic acid, malic acid], the “Average value (days)” value in test [1] (setting [3]) is 11.1 days. The “effectiveness to low light cultivation (days until lodging versus control test solution)” value in test [1] (organic acid 5 mM, pH 5.0) is recorded as “effective”.
For the compound `O=C(O)C(=O)O` [Oxalic acid, oxalic acid], in test [1] (setting [3]), the “Average value (days)” value stood at 3.7 days.
Turning to `OC[C@H]1O[C@H](OC[C@H]2OC(O)(CO)[C@@H](O)[C@@H]2O)[C@H](O)[C@@H](O)[C@@H]1O` (some centres unmarked) [Palatinose, palatinose], in test [1] (setting [4]), the “Average value (days)” value is 9.6 days.
With `O=C(O)CCC(=O)O` [Succinic acid, succinic acid], the “Average value (days)” value in test [1] (setting [3]) came to 10.4 days. Moreover, in test [1] (organic acid 5 mM, pH 5.0), the “effectiveness to low light cultivation (days until lodging versus control test solution)” value was “effective”.
On to `OC[C@H]1O[C@@](CO)(O[C@H]2O[C@H](CO)[C@@H](O)[C@H](O)[C@H]2O)[C@@H](O)[C@@H]1O` [Sucrose, sucrose], for which the “Average value (days)” value in test [1] (setting [4]) worked out at 25.9 days. Further, the “effectiveness to low light cultivation (days until lodging versus control test solution)” value in test [1] (sugar 3%) is on record as “particularly effective”.
In the case of `O=C(O)C(O)C(O)C(=O)O` (centres unmarked) [Tartaric acid, tartaric acid], the “Average value (days)” value in test [1] (setting [3]) was 4.9 days.
Take `OC[C@H]1O[C@H](O[C@H]2O[C@H](CO)[C@@H](O)[C@H](O)[C@H]2O)[C@H](O)[C@@H](O)[C@@H]1O` [Trehalose, trehalose]: the “Average value (days)” value in test [1] (setting [4]) came to 21.9 days. Moreover, in test [1] (sugar 3%), the “effectiveness to low light cultivation (days until lodging versus control test solution)” value was “particularly effective”.
Take `O=C[C@H](O)[C@@H](O)[C@H](O)CO` [Xylose, xylose]: the “Average value (days)” value in test [1] (setting [4]) is recorded as 10.1 days.
